Experimental data taken from patent US8497274B2, “Heterocyclic compound and use thereof” (Takeda Pharmaceutical Company Limited, priority 2008, dated 2013).

What was measured:
[1] = tested on: phosphorylated ERK1/2 in A-375 tumor; assay: Intratumor phosphorylated ERK inhibitory activity in malignant melanoma cell A-375 cancer-bearing rat; type: in vivo; details: phosphorylated ERK1/2 in A-375 tumor of nude rat, 25 mg/kg oral, 4 hrs after administration
Description: Human malignant melanoma cell A-375 (purchased from ATCC) was transplanted into 5-week-old nude rat (F344/N Jcl-mu/mu female (CLEA Japan, Inc.)) at 1.0×10^7 cells by subcutaneous injection. After 2-5 weeks from the transplantation, a test compound dissolved in 5% DMSO, 10% Cremophor, 20% PEG-400 and 65% distilled water was orally administered to rats having an engrafted tumor with a tumor volume of 200-800 mm^3 at a dose of 25 mg/kg body weight. After 4 hrs from the administration of the test compound, the tumor was collected under ether anesthesia and the tumor was homogenized in RIPA buffer (1% NP-40, 0.5% sodium deoxycholate, 1% SDS, 97.5% DPBS (GIBCO) with Protease Inhibitor Cocktail Set 3 (calbiochem) and Phosphatase Inhibitor Cocktail 2 (Sigma)). The protein in the tumor lysate was quantified using BCA Protein assay kit (Thermo), and the protein amount in the tumor lysate was adjusted to 1.25 μg/μL. 2×SDS sample buffer was added to the above-mentioned protein solution and the mixture was treated at 95° C. for 5 min.
Thereafter, SDS-PAGE was performed and the protein was transferred onto Sequi-Blot PVDF Membrane (Bio-Rad) by the Western blot method. The membrane was blocked with 5% (w/v) Block-Ace solution dissolved in phosphate buffered saline and reacted overnight with anti-phosphorylated ERK1/2 (Thr202/Tyr204) (Cell Signaling #9101) diluted 1000-fold with phosphate buffered saline containing 0.4% (w/v) Block-Ace. The membrane was washed with phosphate buffered saline containing 0.1% Tween20 (Wako Pure Chemical Industries, Ltd.), and reacted with HRP-labeled rabbit IgG polyclonal antibody (Cell Signaling #7074) diluted 1000-fold with phosphate buffered saline containing 0.4% Block-Ace for 1 hr at room temperature. […]
(Amersham Biosciences), and detected with luminoimage analyzer LAS-1000 (Fuji Film). The phosphorylated ERK1/2 protein inhibitory rate (%) of the test compound was calculated by the following formula. Inhibitory rate (%)=(1−(luminescence of test compound−blank)÷(luminescence of control group−blank))×100

[2] = tested on: MEK1/2 phosphorylation in human colon cancer cell HT-29; assay: Colon cancer cell HT-29 intracellular MEK phosphorylation inhibitory activity in vitro; type: cell-based; details: HT-29 cells; for IC50: 2 hrs treatment, phosphorylated MEK1/2 Western blot; for inhibition at 0.5 µM: MEK1/2 protein phosphorylation, compound 0.5 μM, read-out: Inhibitory rate (%) at 0.5 μM
Description: 500 μL of a cell suspension of human colon cancer cell HT-29 (purchased from American Type Culture Collection (ATCC)) was plated in a 48-well plate (100,000 cells/well), and the cells were cultured overnight at 37° C. in the presence of 5% CO2, treated with a test compound (250 μL/well) diluted in 3-fold dilution series and cultured for 2 hrs. After 2 hrs, the culture medium containing the test compound was removed, and the cells were lysed with SDS sample buffer (100 μL/well) and heated at 95° C. for 5 min. Thereafter, the cells lysed with SDS sample buffer were applied to SDS-PAGE, and the protein was transferred onto Sequi-Blot™ PVDF Membrane (Bio-Rad) by the Western blot method. The PDVF membrane was blocked with a Block-Ace solution (Snow Brand Milk Products Co., Ltd) dissolved in phosphate buffered saline (MP Biochemicals) to 5% W/V, and reacted overnight with anti-phosphorylated MEK1/2 (Ser217/221) (Cell signaling #9121) diluted 1000-fold with phosphate buffered saline containing 0.4% Block-Ace. The membrane was washed with phosphate buffered saline containing 0.1% Tween 20 (Wako Pure Chemical Industries, Ltd.), and reacted at room temperature for 1 hr with HRP labeled rabbit IgG polyclonal antibody (Cell signaling #7074) diluted 1000-fold with phosphate buffered saline containing 0.4% Block-Ace. The membrane was washed in the same manner as above, chemical luminescence of a phosphorylated MEK1/2 protein labeled with the antibody, which was caused by ECL-plus Detection Reagent (Amersham bioscience), was detected by Luminescent Image Analyzer LAS-1000 (FUJIFILM Corporation). Taking the luminescence of the control group free of the test compound as 100%, the concentration (IC50 value) of the compound necessary for inhibiting the residual luminescence to 50% of the control group was calculated. In addition, MEK1/2 protein phosphorylation inhibitory rate (%) of the test compound at compound concentration 0.5 μM was calculated by the following formula. The results are shown in Table 2-B. Inhibitory rate (%)=(1−(luminescence of test compound−blank)÷(luminescence of control group−blank))×100

[3] = tested on: human colon cancer cell HT-29; assay: Colon cancer cell HT-29 growth suppressive activity in vitro; type: cell-based
Description: 100 μL of a cell suspension (3,000 cells/well) of human colon cancer cell HT-29 (purchased from ATCC) was plated in a 96-well plate, and the cells were cultured at 37° C. in the presence of 5% CO2. The next day, 100 μL of culture medium containing each test compound diluted in 2-fold dilution was added, and the cells were cultured for 3 days. The culture medium containing the test compound was removed, and the cells were washed with phosphate buffered saline (MP Biochemicals). A 50% trichloroacetic acid solution was added to the final concentration of 10% (v/v), and the mixture was stood overnight at 4° C., whereby the cells were fixed to the plate. Then, a dye SRB 0.4% (w/v) solution (dissolved in 1% acetic acid) was added at 50 μl/well, whereby the cell protein was fixed and stained (Skehan et al., Journal Of National Cancer Institute, vol. 82, pp. 1107-1112, 1990). The cells were washed 3 times with 1% acetic acid solution (200 μL/well), and 100 μL of an extract (10 mM Tris buffer) was added to extract the dye. The absorbance at an absorption wavelength 550 nm was measured, and cell amount was measured as a protein amount. Taking the protein amount of the control group free of the test compound solution as 100%, the proportion of the residual protein amount of each treatment group was determined and the concentration of the compound necessary for suppressing the residual cell amount to 50% of the control (IC50 value) was calculated. In addition, cell proliferation inhibitory rate (%) of the test compound at compound concentration 10 μM was calculated by the following formula. The results are shown in Table 3-B. Inhibitory rate (%)=(1−(absorbance of test compound−blank)÷(absorbance of control group−blank))×100

Row | IC50 [2] [nM] | IC50 ([3]; 72 h, HT-29 cells, 3 days culture, SRB staining) [nM] | Structure (SMILES) | Inhibitory rate (%) [1] [%] | inhibition at 0.5 µM [2] [%] | inhibition at 10 µM ([3]; HT-29 cell proliferation, compound 10 μM, read-out: Inhibitory rate (%) at 10 μM) [%]
1 | < 300 | – | CC(C)(C#N)c1cccc(C(=O)Nc2cccc(Oc3ccc4nc(NC(=O)C5CC5)sc4c3C#N)c2)c1Cl [Example 3, 2-chloro-N-[3-({7-cyano-2-[(cyclopropylcarbonyl)amino]-1,3-benzothiazol-6-yl}oxy)phenyl]-3-(1-cyano-1-methylethyl)benzamide] | 71 | 86 | –
2 | – | < 500 | N#Cc1c(Oc2cccc(NC(=O)Cc3cccc(C(F)(F)F)c3)c2)ccc2nc(NC(=O)C3CC3)sc12 [Example 50, N-{7-cyano-6-[3-({[3-(trifluoromethyl)phenyl]acetyl}amino)phenoxy]-1,3-benzothiazol-2-yl}cyclopropanecarboxamide] | 76 | – | 91
3 | < 300 | – | N#Cc1c(Oc2ccc(F)c(NC(=O)Cc3cccc(C(F)(F)F)c3)c2)ccc2nc(NC(=O)C3CC3)sc12 [Example 53, N-{7-cyano-6-[4-fluoro-3-({[3-(trifluoromethyl)phenyl]acetyl}amino)phenoxy]-1,3-benzothiazol-2-yl}cyclopropanecarboxamide] | 88 | 79 | –
